Data set [1] has as its system level of sorbitol in the sciatic nerves. Description: In vivo study: reduction of the accumulation of sorbitol. More on the design: species or system male Wistar rats. Particulars: Rattus norvegicus, po; 5 mg/kg/day p.o.; streptozotocin-diabetic rats; sciatic nerve sorbitol, relative to diabetic and non-diabetic animals; read-out: Protection against the increase in sorbitol (%) (5 mg/kg/day p.o.). As to the method:
2) In vivo study: reduction of the accumulation of sorbitol
Male Wistar rats weighing from 200 to 250 g are made diabetic by intravenous injection of streptozotocin (60 mg/kg). They then receive an oral treatment of the test products, in the form of a suspension, 4 hours, 30 hours and 52 hours after the injection of streptozotocin. 18 hours after the final oral treatment, the rats are sacrificed and decapitated and their sciatic nerves are then removed. After extraction, the level of sorbitol in the nerves is measured, according to the enzymatic method described by H. J. Bergmeyer (Methods of enzymatic analysis, H. U. Bergmeyer ed., Academic Press New York 3, p. 1323, 1974). The percentage of protection is calculated for each product relative to the batch of diabetic animals, taking into account the level of sorbitol in the sciatic nerves of non-diabetic rats.

The target of a further data set is T1, aldose reductase (Rattus norvegicus, UniProt P07943).
T1 construct: The aldose reductase used is obtained from the lenses of male Wistar rats; from tissue; host or cells: lenses of male Wistar rats
Description: In vitro study: inhibition of aldose reductase. In kind it is biochemical, male Wistar rats (lenses). The conditions noted are these: enzyme from rat lenses; NADPH, L-glyceraldehyde; spectrophotometry at 340 nm. The method, then: 1) In vitro study: inhibition of aldose reductase
The aldose reductase used is obtained from the lenses of male Wistar rats according to a modification of the method by S. Hayman et al. (Journal of Biological Chemistry 240, p. 877, 1965). The enzymatic extract is diluted in a phosphate buffer in the presence of NADPH and various concentrations of the test products. The reaction is triggered with L-glyceraldehyde and the rate of reaction is measured by monitoring the disappearance of the NADPH by spectrophotometry at 340 nm. The rate of reaction is calculated for each concentration of products, and the concentration required for a 50% reduction in the rate of reaction (IC50) is then evaluated by linear interpolation.

In general, melting point refers to the temperature, or range, at which the solid turns liquid. One may read the IC50 as the midpoint of a concentration-inhibition curve. The compound `Cc1cc(NS(=O)(=O)c2ccccc2)cc(C)c1S(=O)(=O)C[N+](=O)[O-]` [Example 1] showed a melting point of 129 to 131 °C. Moreover, the inhibition in vivo at 5 mg/kg in data set [1] amounted to 65%. Besides, at aldose reductase, the IC50 is 8 nM.
With `Cc1cc(NS(=O)(=O)c2ccc(F)c(F)c2)cc(C)c1S(=O)(=O)C[N+](=O)[O-]` [Example 10, 3,4-Difluoro-N-[3,5-dimethyl-4-[(nitromethyl)sulphonyl]phenyl]benzenesulphonamide], the melting point was 158 to 160 °C. Besides, the inhibition in vivo at 5 mg/kg in data set [1] is 66%. On aldose reductase, this compound yielded an IC50 of 7 nM.
As to `Cc1cc(NS(=O)(=O)c2cccc(Br)c2)cc(C)c1S(=O)(=O)C[N+](=O)[O-]` [Example 13, 3-Bromo-N-[3,5-dimethyl-4-[(nitromethyl)sulphonyl]-phenyl]benzenesulphonamide], the melting point fell in the range of 156 to 158 °C. Further, the inhibition in vivo at 5 mg/kg in data set [1] amounted to 70%. The compound also gave an IC50 at aldose reductase of 8 nM.
In turn, `Cc1cc(NS(=O)(=O)c2ccccc2C(F)(F)F)cc(C)c1S(=O)(=O)C[N+](=O)[O-]` [Example 14, N-[3,5-Dimethyl-4-[(nitromethyl)sulphonyl]phenyl]-2-(trifluoromethyl)benzenesulphonamide] had a melting point of 171 to 173 °C. Moreover, the inhibition in vivo at 5 mg/kg in data set [1] amounted to 70%. On aldose reductase, this compound registered an IC50 of 7 nM.
The compound `Cc1cc(NS(=O)(=O)c2ccc(F)cc2)cc(C)c1S(=O)(=O)C[N+](=O)[O-]` [Example 24, N-[3,5-Dimethyl-4-[(nitromethyl)sulphonyl]phenyl]-4-fluorobenzenesulphonamide] displayed a melting point of 152 to 154 °C. In addition, the inhibition in vivo at 5 mg/kg in data set [1] came out at 80%. Further, at aldose reductase, it took 8 nM to reach half-maximal inhibition (IC50).
Compound `Cc1cc(NS(=O)(=O)c2cccc(F)c2)cc(C)c1S(=O)(=O)C[N+](=O)[O-]` [Example 25, N-[3,5-Dimethyl-4-[(nitromethyl)sulphonyl]phenyl]-3-fluorobenzenesulphonamide] showed a melting point of 135 to 137 °C. In addition, the inhibition in vivo at 5 mg/kg in data set [1] is 85%. This compound also displayed an IC50 against aldose reductase of 7 nM.
Regarding `Cc1cc(NS(=O)(=O)Cc2ccccc2)cc(C)c1S(=O)(=O)C[N+](=O)[O-]` [Example 26, N-[3,5-Dimethyl-4-[(nitromethyl)sulphonyl]phenyl]-phenylmethanesulphonamide], the melting point was in the range of 124 to 126 °C. Besides, the inhibition in vivo at 5 mg/kg in data set [1] stood at 104%. This compound showed an IC50 on aldose reductase of 6 nM.
For `Cc1cc(NS(=O)(=O)c2cccc(F)c2F)cc(C)c1S(=O)(=O)C[N+](=O)[O-]` [Example 29, 2,3-Difluoro-N-[3,5-dimethyl-4-[(nitromethyl)sulphonyl]phenyl]benzenesulphonamide] the same measures were 166 to 168 °C, 71% and 7 nM.
For `Cc1cc(NS(=O)(=O)c2cc(F)cc(F)c2)cc(C)c1S(=O)(=O)C[N+](=O)[O-]` [Example 30, 3,5-Difluoro-N-[3,5-dimethyl-4-[(nitromethyl)sulphonyl]phenyl]benzenesulphonamide] the same measures were 187 to 190 °C, 87% and 8 nM.
The compound `Cc1cc(NS(=O)(=O)c2ccccc2F)cc(C)c1S(=O)(=O)C[N+](=O)[O-]` [Example 34, N-[3,5-Dimethyl-4-[(nitromethyl)sulphonyl]phenyl]-2-fluorobenzenesulphonamide] displayed a melting point of 175 to 177 °C. Moreover, the inhibition in vivo at 5 mg/kg in data set [1] worked out at 69%. Moreover, at aldose reductase, the IC50 stood at 9 nM.
Compound `Cc1cc(NS(=O)(=O)Cc2ccc(Br)cc2F)cc(C)c1S(=O)(=O)C[N+](=O)[O-]` [Example 52, 4-Bromo-N-[3,5-dimethyl-4-[(nitromethyl)sulphonyl]-phenyl]-(2-fluorophenyl)methanesulphonamide] showed a melting point of 152 to 154 °C.
`Cc1cc(NS(=O)(=O)CC2CCCCC2)cc(C)c1S(=O)(=O)C[N+](=O)[O-]` [Example 53, N-[3,5-Dimethyl-4-[(nitromethyl)sulphonyl]phenyl]-cyclohexylmethanesulphonamide] had a melting point of 126 to 128 °C.

The values are drawn from US20030203966A1, “Nitromethylthiobenzene derivatives as aldose reductase inhihibitors” (priority 1996, published 2003).
